Data reported in US20120052122A1, “Treatment Of Chronic Obstructive Pulmonary Disease With Phosphodiesterase-4 Inhibitor” (Nycomed GmbH, priority 2010, published 2012).
“And” between values parts separate entries of the source, which are not always exact repeats. Identical values can stand only once. Like-named read-outs stand apart in the source and are kept apart here.

What was measured:
[1] = system: CYP 2B6; test: CYP 2B6 induction in vitro
[2] = system: animal models; test: Smoke-induced lung damage animal models; conditions: animal models in vivo
[3] = system: endotoxin challenged healthy volunteers; test: Endotoxin challenge in healthy volunteers
[4] = system: mouse; test: Labor and delivery in the mouse; format: in vivo
From the text: Roflumilast should not be used during labor and delivery.

[5] = system: cytokines and reactive oxygen species from cells and lung tissue; test: Release of inflammatory mediators in experimental animals; conditions: cells and lung tissue in vitro and in vivo
[6] = system: patients with COPD and chronic cough and sputum production
[7] = Phase I studies, single oral doses of 2,500 mcg and 5,000 mcg; format: in vivo, human; conditions: single oral doses of 2,500 mcg and one single dose of 5,000 mcg
[8] = Blood-brain barrier penetration of radiolabeled roflumilast in rats
[9] = Excretion into milk of lactating rats; format: in vivo, rat; conditions: roflumilast and/or its metabolites
From the text: Excretion of roflumilast and/or metabolites into human milk is probable. Roflumilast should not be used during breast-feeding.

[10] = Non-clinical safety pharmacology and toxicity studies
From the text: Non-clinical data reveal no special hazard for humans based on conventional studies of safety pharmacology and repeated dose toxicity. Furthermore, there is no evidence of immunotoxic, skin sensitizing or phototoxic potential.

[11] = system: human airway epithelial cells; test: MUC5AC formation; conditions: human airway epithelial cells and animal experiments
[12] = system: patients with COPD and chronic cough and sputum production; remark: listed apart in the source
From the text: Their postbronchodilator FEV1 was 50% or less than the predicted value.
Patients could use short acting β2 agonists as needed and could continue treatment with long acting β2 agonists or short acting anti-cholinergic drugs at stable doses. However, inhaled corticosteroids and long acting anti-cholinergic drugs were not allowed during the study. Eligible patients were stratified according to their use of long acting β2 agonists and smoking status.
The primary endpoints were the change in prebronchodilator FEV1 during treatment and the rate of COPD exacerbations, defined as moderate if they required treatment with oral or parenteral corticosteroids, or severe if they were associated with hospital admission or death. […] Additionally, data for the total number of COPD exacerbations (as defined above together with episodes treated with antibiotics alone) and a range of spirometric outcomes were gathered.
A negative binominal regression analysis was done to assess the robustness of the results against the distributional assumptions. Data were analyzed in the two studies separately and in a pooled analysis. Changes were analyzed from baseline in prebronchodilator and postbronchodilator FEV1 using a repeated-measures analysis of covariance with all data available for patients during the 52-week treatment. (Reference 18) A Cox proportional hazard model was used to test for differences in time-to-event data. For analysis of the concentrations of C-reactive protein, an analysis of covariance model was used, with the method of the last observation carried forward for the log-transformed data for concentrations. For the regression models (analysis of covariance, Cox, and Poisson), the covariates included treatment, age, sex, smoking status (current or former smoker), country, and treatment with long acting β2 agonists. In the Cox analysis, country was included as a stratum. In the Poisson regression analysis, baseline postbronchodilator FEV1 (% of predicted value) was also included as a covariate. To address the issue of multiple comparisons, a hierarchical hypothesis-testing approach was adopted, If the primary outcomes were positive, the key secondary outcomes were tested in the order above. If a significant difference between treatments was not obtained for the primary or key secondary outcomes, all subsequent analyses were considered exploratory.
In the one-year trials, long-acting beta-2 agonists (LABA) were allowed and used in approximately 50% of the study population. The use of inhaled corticosteroids was terminated at randomization. Lung function (pre-bronchodilator forced expiratory volume in one second, FEV1) and the rate of moderate exacerbations (requiring intervention with systemic glucocorticosteroids) or severe exacerbations (resulting in hospitalization and/or leading to death) were primary endpoints. Secondary endpoints in both studies included further evaluation of exacerbations and lung function parameters, dyspnea, and use of reliever medication.

[13] = clinical; conditions: human, in vivo
[14] = M2-124 and M2-125 pooled, 52 weeks
[15] = M2-124 and M2-125 pooled, 52 weeks, mean
[16] = M2-124 and M2-125 pooled, 52 weeks, mean (SE)
[17] = M2-124 and M2-125 pooled, Roflumilast vs Placebo
[18] = M2-124 and M2-125 pooled, Roflumilast vs Placebo, listed as roflumilast

For O=C(Nc1c(Cl)cncc1Cl)c1ccc(OC(F)F)c(OCC2CC2)c1 [Roflumilast, N-(3,5-dichloropyridin-4-yl)-3-cyclopropylmethoxy-4-difluoromethoxy-benzamide], the “Induction of CYP 2B6” value [1] was “weak induction”, the “Smoke-induced destruction of lung parenchyma” value [2] was “reduced” and the “Influx of neutrophils and eosinophils into the airways” value [3] was “attenuated”. For the same compound, the “Oral dose with signs of tocolytic activity resulting in delivery retardation and decreased postnatal survival” value [4] was at least 2 mg/kg/day, the “Release of inflammatory mediators (cytokines and reactive oxygen species)” value [5] was “suppressed” and the “Change in C-reactive protein from baseline to last postrandomisation visit” value ([6]; M2-124) was 1.0; n = 691 mg/L. For the same compound, the “Median time to first exacerbation (moderate or severe) [IQR]” value ([6]; M2-124) was 85.0 (29.5-185.5) days, the “Median time to second exacerbation (moderate or severe) [IQR]” value ([6]; M2-124) was 172.0 days and the “Number of patients needed to treat to prevent one moderate or severe exacerbation per year” value ([6]; M2-124) was 5.3 and 5.29. The “Time to mortality (mean, SD)” value ([6]; M2-124) was 213.8 days, the “Exacerbations moderate or severe, mean rate [95% CI]” value ([6]; M2-124, 52 weeks) was 1.08 (0.96-1.21); per patient, per year and the “Exacerbations moderate, mean rate [95% CI]” value ([6]; M2-124, 52 weeks) was 0.94 (0.83-1.06); per patient, per year. The “Exacerbations severe, mean rate [95% CI]” value ([6]; M2-124, 52 weeks) was 0.11 (0.07-0.15); per patient, per year, the “Exacerbations treated with systemic corticosteroids, antibiotics, or both, mean rate [95% CI]” value ([6]; M2-124, 52 weeks) was 1.10 (0.98-1.23); per patient, per year and the “Change in postbronchodillator FEV1/FVC” value ([6]; M2-124, 52 weeks, mean) was 0.488%. For the same compound, the “Change in prebronchodillator FEV1/FVC” value ([6]; M2-124, 52 weeks, mean) was 0.314%, the “Change in postbronchodillator FEF25-75” value ([6]; M2-124, 52 weeks, mean (SE)) was 22 (6); mL/s and the “Change in postbronchodillator FEV1” value ([6]; M2-124, 52 weeks, mean (SE)) was 57 (9); mL. For the same compound, the “Change in postbronchodillator FVC” value ([6]; M2-124, 52 weeks, mean (SE)) was 76 (15); mL, the “Change in postbronchodillator PEF” value ([6]; M2-124, 52 weeks, mean (SE)) was 8.08 (1.50); L/min and the “Change in prebronchodillator FEF25-75” value ([6]; M2-124, 52 weeks, mean (SE)) was 19 (5); mL/s. For the same compound, the “Change in prebronchodillator FEV1” value ([6]; M2-124, 52 weeks, mean (SE)) was 46 (8); mL, the “Change in prebronchodillator FVC” value ([6]; M2-124, 52 weeks, mean (SE)) was 68 (15); mL and the “Change in prebronchodillator PEF” value ([6]; M2-124, 52 weeks, mean (SE)) was 6.65 (1.45); L/min. The “Adverse event Influenza, difference” value ([6]; M2-124, Roflumilast vs Placebo) was 1.13% (−0.70 to 2.95), the “Change in C-reactive protein from baseline to last postrandomisation visit, difference” value ([6]; M2-124, Roflumilast vs Placebo) was “Difference 1.0 (0.8 mg/L” and the “Change in postbronchodillator FEF25-75, difference” value ([6]; M2-124, Roflumilast vs Placebo) was “Difference 11 (−5 mL/s”. The “Change in postbronchodillator FEV1, difference” value ([6]; M2-124, Roflumilast vs Placebo) was “Difference 49 (26 mL”, the “Change in postbronchodillator FEV1/FVC, difference” value ([6]; M2-124, Roflumilast vs Placebo) was “Difference 0.202 (−0.343%” and the “Change in postbronchodillator FVC, difference” value ([6]; M2-124, Roflumilast vs Placebo) was “Difference 101 (63 mL”. The “Change in postbronchodillator PEF, difference” value ([6]; M2-124, Roflumilast vs Placebo) was “Difference 4.21 L/min”, the “Change in prebronchodillator FEF25-75, difference” value ([6]; M2-124, Roflumilast vs Placebo) was “Difference 17 (3 to mL/s” and the “Change in prebronchodillator FEV1, difference” value ([6]; M2-124, Roflumilast vs Placebo) was “Difference 39 (18 mL”. The “Change in prebronchodillator FEV1/FVC, difference” value ([6]; M2-124, Roflumilast vs Placebo) was “Difference 0.312 (−0.262%”, the “Change in prebronchodillator FVC, difference” value ([6]; M2-124, Roflumilast vs Placebo) was “Difference 89 (51 mL” and the “EQ-5D total score, difference” value ([6]; M2-124, Roflumilast vs Placebo) was “Difference −0.0047”. For the same compound, the “TDI focal score, difference” value ([6]; M2-124, Roflumilast vs Placebo) was “Difference 0.2”, the “Change in prebronchodillator FVC, difference” value ([6]; M2-124, Roflumilast vs Placebo, listed as roflumilast) was 89 mL and the EQ-5D total score ([6]; M2-124, mean) was 0.0049. The TDI focal score ([6]; M2-124, mean (SE)) was 0.7 (0.1);, the “Adverse event Influenza, patients” value ([6]; M2-124, n = 769) was 27 (4%) number (%) and the “Adverse event Upper respiratory tract infection, patients” value ([6]; M2-124, n = 769) was 16 (2%) number (%). The “Adverse event Upper respiratory tract infection, difference” value ([6]; human, in vivo, 52 weeks) was −0.70% (−2.38 to 0.98), the “Symptoms observed at an increased rate” value [7] was “headache, gastrointestinal disorders, dizziness, palpitations, lightheadedness, clamminess and arterial hypotension” and the “Penetration across the blood-brain barrier” value [8] was “low penetration”. The Excretion into milk [9] was “excreted into the milk”, the “Immunotoxic, skin sensitizing or phototoxic potential” value [10] was “no evidence” and the “Formation of MUC5AC” value [11] was “inhibited”. The “Change in C-reactive protein from baseline to last postrandomisation visit” value ([12]; M2-124 and M2-125 pooled) was 1.1; n = 1371 mg/L, the “Median time to first exacerbation (moderate or severe) [IQR]” value ([12]; M2-124 and M2-125 pooled) was 80.0 (28.0-190.0) days and the “Median time to second exacerbation (moderate or severe) [IQR]” value ([12]; M2-124 and M2-125 pooled) was 177.0 (92.0-262.0) days. For the same compound, the “Time to mortality (mean, SD)” value ([12]; M2-124 and M2-125 pooled) was 206.1 days, the “Exacerbations moderate or severe, mean rate [95% CI]” value [12, 14] was 1.14 (1.05-1.24); per patient, per year and the “Exacerbations moderate, mean rate [95% CI]” value [12, 14] was 0.99 (0.91-1.08); per patient, per year. The “Exacerbations severe, mean rate [95% CI]” value [12, 14] was 0.12 (0.10-0.16); per patient, per year, the “Exacerbations treated with systemic corticosteroids, antibiotics, or both, mean rate [95% CI]” value [12, 14] was 1.13 (1.04-1.23); per patient, per year and the “Change in postbronchodillator FEV1/FVC” value [12, 15] was 0.517%. The “Change in prebronchodillator FEV1/FVC” value [12, 15] was 0.247%, the “Change in postbronchodillator FEF25-75” value [12, 16] was 21 (4); mL/s and the “Change in postbronchodillator FEV1” value [12, 16] was 50 (6); mL. For the same compound, the “Change in postbronchodillator FVC” value [12, 16] was 67 (10); mL, the “Change in postbronchodillator PEF” value [12, 16] was 4.93 (1.05); L/min and the “Change in prebronchodillator FEF25-75” value [12, 16] was 16 (4); mL/s. For the same compound, the “Change in prebronchodillator FEV1” value [12, 16] was 40 (6); mL, the “Change in prebronchodillator FVC” value [12, 16] was 64 (10); mL and the “Change in prebronchodillator PEF” value [12, 16] was 3.69 (1.02); L/min. For the same compound, the “Change in C-reactive protein from baseline to last postrandomisation visit, difference” value [12, 17] was “Difference 1.0 mg/L”, the “Change in postbronchodillator FEF25-75, difference” value [12, 17] was “Difference 19 mL/s” and the “Change in postbronchodillator FEV1, difference” value [12, 17] was “Difference 55 mL”. For the same compound, the “Change in postbronchodillator FEV1/FVC, difference” value [12, 17] was “Difference 0.426%”, the “Change in postbronchodillator FVC, difference” value [12, 17] was “Difference 101 mL” and the “Change in postbronchodillator PEF, difference” value [12, 17] was “Difference 4.72 L/min”. For the same compound, the “Change in prebronchodillator FEF25-75, difference” value [12, 17] was “Difference 20 mL/s”, the “Change in prebronchodillator FEV1, difference” value [12, 17] was “Difference 48 mL” and the “Change in prebronchodillator FEV1/FVC, difference” value [12, 17] was “Difference 0.393%”. For the same compound, the “Change in prebronchodillator FVC, difference” value [12, 17] was “Difference 98 mL”, the “Change in prebronchodillator PEF, difference” value [12, 17] was “Difference 3.53 L/min” and the “EQ-5D total score, difference” value [12, 17] was 0.0023. For the same compound, the “TDI focal score, difference” value [12, 17] was “Difference 0.3”, the “Change in postbronchodillator FEV1, difference” value [12, 18] was 55 mL and the “Change in prebronchodillator FEV1, difference” value [12, 18] was 48 mL. For the same compound, the “TDI focal score, difference” value [12, 18] was 0.25, the EQ-5D total score ([12]; M2-124 and M2-125 pooled, mean) was 0.0072 and the TDI focal score ([12]; M2-124 and M2-125 pooled, mean (SE)) was 0.7 (0.1);. For the same compound, the “Probability of withdrawal due to adverse events in the first 12 weeks” value ([12]; human, in vivo) was 8%, the “Subsequent probability of withdrawal because of adverse events” value ([12]; human, in vivo) was 9% and the “Adverse events reported, patients” value ([12]; human, in vivo, 52 weeks) was 1040 (67%) number (%). For the same compound, the “Atrial fibrillation, patients” value ([12]; human, in vivo, 52 weeks) was 17 (1%) number (%), the “Discontinuations associated with adverse events” value ([12]; human, in vivo, 52 weeks) was 219 [14%] number [%] and the “Reported cardiovascular adverse events” value ([12]; human, in vivo, 52 weeks) was 108 [7%] number [%]. The “Serious adverse events reported, patients” value ([12]; human, in vivo, 52 weeks) was 301 (19%) number (%), the “Vomiting, patients” value ([12]; human, in vivo, 52 weeks) was 17 (1%) number (%) and the “Incidence of pneumonia or other pulmonary infections” value ([12]; in vivo) was “did not increase”. For the same compound, the “Mean absolute weight change over the 1-year period” value ([12]; in vivo) was -2.1 kg, the “Neurological or cardiac toxicity” value ([12]; in vivo) was “No significant neurological or cardiac toxicity” and the “Patients with a decrease of body weight” value ([12]; in vivo) was 62%. For the same compound, the “Weight loss in patients not reporting diarrhea, nausea, vomiting, or headache” value ([12]; in vivo) was 2.02 kg, the “Weight loss in patients reporting diarrhea, nausea, vomiting, or headache” value ([12]; in vivo) was 2.60 kg and the “Number of patients experiencing a moderate exacerbation” value ([12]; pooled) was 624. The “Number of patients experiencing a severe exacerbation” value ([12]; pooled) was 157, the “Estimated rate of moderate or severe exacerbations per patient per year, lower than placebo” value ([12]; pooled analysis) was 17% and the “Exacerbations (excluding severe events) requiring systemic corticosteroids or antibiotics, or both, reduction vs placebo” value ([12]; pooled analysis) was 16%. The “Mean prebronchodilator FEV1 increase with long acting β2 agonist” value ([12]; pooled, compared to placebo, concomitant LABA) was 46 mL, the “Mean prebronchodilator FEV1 increase without long acting β2 agonist” value ([12]; pooled, compared to placebo, no concomitant LABA) was 50 mL and the Cmax [13] was 8.8 ng/mL. For the same compound, the clearance ([13]; iv) was about 160 mL/min, the half-life ([13]; po) was about 1020 min and the bioavailability ([13]; po, 500 ug) was about 80%.
